This passage reports IC50 results from publication PMC6274554, “Synthetic Strategy and Anti-Tumor Activities of Macrocyclic Scaffolds Based on 4-Hydroxyproline” (Molecules, 2016).

Holding throughout (format): cell-based, human
For experiment [1], the system named is breast cancer cell line MDA-MB-231. As to the kind of experiment: MTT cytotoxicity assay, MDA-MB-231. The note with it: MDA-MB-231 cells, 8000 cells/well, 24 h incubation with compound, absorbance 490 nm, read-out: IC50 (μmol/L) MDA-MB-231. The source says: (§1) A small library derived from 6a–b, 9 and 10a–c was obtained by hydrolysis of the macrocycles and condensation with amines. The anti-tumor activities for lung cancer cell line A549, breast cancer cell line MDA-MB-231 and hepatocarcinoma cell line Hep G2 of all these new compounds were screened in vitro by an MTT assay. Most of the compounds show some inhibitory activities against A549, MDA-MB-231 and Hep G2. […] In the future, further structure–activity relationship studies will be performed to determine how the substituents affected the anti-tumor activity and to design the best chemical structure in the future.
(§2) The human lung cancer cell line A549, breast cancer cell line MDA-MB-231 and hepatocarcinoma cell line Hep G2 were cultured in Dulbecco’s modified Eagle’s medium (DMEM) supplemented with antibiotics (penicillin 50 U/mL; streptomycin 50 µg/mL) and 10% FCS. The incubation was at 37 °C in a humidified atmosphere of 5% CO2 in air before experiments. Cells were first seeded at a density of 8000 cells/well in a 96-well plate for 48 hours. Solutions containing respective concentrations of compounds were added into wells and incubation continued for another 24 hours. After that, the MTT (3-(4,5-dimethylthiazol-2-yl)-2,5-diphenyltetrazolium bromide) dye stock solution (10 μL, 5 mg/mL) was added to each well. After 4 h, the supernatant was removed and DMSO (100 μL) was added to solubilize the MTT. The absorbance was measured at a wave length of 490 nm (A490nm) on an ELISA microplate reader. Results were expressed as IC50 values.

For experiment [2], the system named is lung cancer cell line A549. In words: MTT cytotoxicity assay, A549. As to conditions: A549 cells, 8000 cells/well, 24 h incubation with compound, absorbance 490 nm, read-out: IC50 (μmol/L) A549.
From the text: as §1, §2

The test system of experiment [3] is hepatocarcinoma cell line Hep G2. As to the kind of experiment: MTT cytotoxicity assay, Hep G2. The note with it: 8000 cells/well, 24 h incubation with compound, absorbance 490 nm, read-out: IC50 (μmol/L) Hep G2.
From the text: as §1, §2

The mark [4] stands for this setting: Homo sapiens, HepG2, Hep G2 cells.

Read-outs that look alike come from different tables or passages of the source. Where only a bound is given, the exact number is not on record here.

For `O=C(Nc1ccccc1)[C@@H]1C[C@@H]2CN1C(=O)c1cccc(c1)OC/C=C\CO2` [Compound 32, (4Z,8R,10S)-12-Oxo-N-phenyl-2,7-dioxa-11-aza-tricyclo[11.3.1.1^8,11]octadecane-4,1(17),13,15-tetraene-10-carboxamide], the IC50 was determined as 9.67 µmol/L in experiment [1] (Homo sapiens), 4.76 µmol/L in experiment [2] (Homo sapiens) and 26.3 µmol/L in experiment [3] (setting [4]).
Consider `O=C(O)[C@@H]1C[C@@H]2CN1C(=O)c1cccc(c1)OCCn1nncc1CO2` [Compound 26, (12R,14S)-16-Oxo-2,11-dioxa-5,6,7,15-tetraaza-tetracyclo[15.3.1.1^12,15.0^5,9]docosane-6,8,1(21),17,19-pentaene-14-carboxylic acid], for which the IC50 was determined as 34.3 µmol/L in experiment [1] (Homo sapiens), 37.1 µmol/L in experiment [2] (Homo sapiens) and 44.9 µmol/L in experiment [3] (setting [4]).
For `CC(C)CNC(=O)[C@@H]1C[C@@H]2CN1C(=O)c1cccc(c1)OC/C=C\CO2` [Compound 33, (4Z,8R,10S)-12-Oxo-N-isobutyl-2,7-dioxa-11-aza-tricyclo[11.3.1.1^8,11]octadecane-4,1(17),13,15-tetraene-10-carboxamide] the same measures were 11.9 µmol/L, 2.55 µmol/L and 41.1 µmol/L.
On to `N.N.[Cl][Pt][Cl]` [Cisplatin, reference compound], for which the IC50 in experiment [1] came to 19.7 µmol/L; in experiment [2], 15.4 µmol/L; in experiment [3] (Hep G2 cells) it was 17.4 µmol/L.
`O=C(Nc1ccccc1)[C@@H]1C[C@@H]2CN1C(=O)c1cccc(c1)OCCCCCCO2` [Compound 44, (10R,12S)-14-Oxo-N-phenyl-2,9-dioxa-13-aza-tricyclo[13.3.1.1^10,13]eicosane-1(19),15,17-triene-12-carboxamide]: the IC50 was found to be 23.1 µmol/L in experiment [1] (Homo sapiens), 98.2 µmol/L in experiment [2] (Homo sapiens) and 88.1 µmol/L in experiment [3] (setting [4]).
The matching figures for `O=C(O)[C@@H]1C[C@@H]2CN1C(=O)c1cccc(c1)OCCCCCO2` [Compound 38, (9R,11S)-13-Oxo-2,8-dioxa-12-aza-tricyclo[12.3.1.1^9,12]nonadecane-1(18),14,16-triene-11-carboxylic acid]: 92.3 µmol/L, greater than 100 µmol/L and greater than 100 µmol/L.
The matching figures for `NC(=O)[C@@H]1C[C@@H]2CN1C(=O)c1cccc(c1)OCCn1nncc1CO2` [Compound 27, (12R,14S)-16-Oxo-2,11-dioxa-5,6,7,15-tetraaza-tetracyclo[15.3.1.1^12,15.0^5,9]docosane-6,8,1(21),17,19-pentaene-14-carboxamide]: 28 µmol/L, 41.3 µmol/L and 34.7 µmol/L.
With `O=C(O)[C@@H]1C[C@@H]2CN1C(=O)c1cccc(c1)OCCCCCCO2` [Compound 42, (10R,12S)-14-Oxo-2,9-dioxa-13-aza-tricyclo[13.3.1.1^10,13]eicosane-1(19),15,17-triene-12-carboxylic acid], the IC50 was greater than 100 µmol/L in experiment [1] (Homo sapiens), greater than 100 µmol/L in experiment [2] (Homo sapiens) and 87.4 µmol/L in experiment [3] (setting [4]).
On to `O=C(O)[C@@H]1C[C@@H]2CN1C(=O)c1cccc(c1)OC/C=C\CO2` [Compound 30, (4Z,8R,10S)-12-Oxo-2,7-dioxa-11-aza-tricyclo[11.3.1.1^8,11]octadecane-4,1(17),13,15-tetraene-10-carboxylic acid], for which the IC50 in experiment [1] (Homo sapiens) is 10.3 µmol/L; in experiment [2] (Homo sapiens) it was 11.2 µmol/L; in experiment [3] (setting [4]), 23.2 µmol/L.
As for `NC(=O)[C@@H]1C[C@@H]2CN1C(=O)c1cccc(c1)OC/C=C\CO2` [Compound 31, (4Z,8R,10S)-12-Oxo-2,7-dioxa-11-aza-tricyclo[11.3.1.1^8,11]octadecane-4,1(17),13,15-tetraene-10-carboxamide], the IC50 worked out at 12.3 µmol/L in experiment [1] (Homo sapiens), 5.21 µmol/L in experiment [2] (Homo sapiens) and 31.9 µmol/L in experiment [3] (setting [4]).
Turning to `NC(=O)[C@@H]1C[C@@H]2CN1C(=O)c1cccc(c1)OCCn1cc(nn1)CO2` [Compound 23, (11R,13S)-15-Oxo-2,10-dioxa-5,6,7,14-tetraaza-tetracyclo[14.3.1.1^5,8.1^11,14]docosane-6,8(21),1(20),16,18-pentaene-13-carboxamide], the IC50 in experiment [1] came to 29.9 µmol/L; in experiment [2], 26.8 µmol/L; in experiment [3] (Hep G2 cells) it was 37.3 µmol/L.
For `O=C(O)[C@@H]1C[C@@H]2CN1C(=O)c1cccc(c1)OCCn1cc(nn1)CO2` [Compound 22, (11R,13S)-15-Oxo-2,10-dioxa-5,6,7,14-tetraaza-tetracyclo[14.3.1.1^5,8.1^11,14]docosane-6,8(21),1(20),16,18-pentaene-13-carboxylic acid] the same measures were 45.1 µmol/L, 32.2 µmol/L and 44.2 µmol/L.
`O=C(Nc1ccccc1)[C@@H]1C[C@@H]2CN1C(=O)c1cccc(c1)OCCCCCO2` [Compound 40, (9R,11S)-13-Oxo-N-phenyl-2,8-dioxa-12-aza-tricyclo[12.3.1.1^9,12]nonadecane-1(18),14,16-triene-11-carboxamide]: the IC50 in experiment [1] (Homo sapiens) worked out at 76.4 µmol/L; in experiment [2] (Homo sapiens), 88 µmol/L; in experiment [3] (setting [4]), 68.4 µmol/L.
For `CC(C)CNC(=O)[C@@H]1C[C@@H]2CN1C(=O)c1cccc(c1)OCCCCCO2` [Compound 41, (9R,11S)-13-Oxo-N-isobutyl-2,8-dioxa-12-aza-tricyclo[12.3.1.1^9,12]nonadecane-1(18),14,16-triene-11-carboxamide] the same measures were 47.3 µmol/L, 34.9 µmol/L and greater than 100 µmol/L.
The matching figures for `O=C(O)[C@@H]1C[C@@H]2CN1C(=O)c1cccc(c1)OCCCCO2` [Compound 34, (8R,10S)-12-Oxo-2,7-dioxa-11-aza-tricyclo[11.3.1.1^8,11]octadecane-1(17),13,15-triene-10-carboxylic acid]: 96.2 µmol/L, greater than 100 µmol/L and 96.2 µmol/L.
Turning to `CC(C)CNC(=O)[C@@H]1C[C@@H]2CN1C(=O)c1cccc(c1)OCCCCCCO2` [Compound 45, (10R,12S)-14-oxo-N-Isobutyl-2,9-dioxa-13-aza-tricyclo[13.3.1.1^10,13]eicosane-1(19),15,17-triene-12-carboxamide], the values for the IC50 in experiment [1] (Homo sapiens), in experiment [2] (Homo sapiens) and in experiment [3] (setting [4]) were 88.7 µmol/L, 93.6 µmol/L and 89.6 µmol/L, respectively.
As to `O=C(Nc1ccccc1)[C@@H]1C[C@@H]2CN1C(=O)c1cccc(c1)OCCn1nncc1CO2` [Compound 28, (12R,14S)-16-Oxo-N-phenyl-2,11-dioxa-5,6,7,15-tetraaza-tetracyclo[15.3.1.1^12,15.0^5,9]docosane-6,8,1(21),17,19-pentaene-14-carboxamide], the figures for the IC50 in experiment [1] (Homo sapiens), in experiment [2] (Homo sapiens) and in experiment [3] (setting [4]) were 43.7 µmol/L, 46.3 µmol/L and 36.3 µmol/L, respectively.
For `NC(=O)[C@@H]1C[C@@H]2CN1C(=O)c1cccc(c1)OCCCCCCO2` [Compound 43, (10R,12S)-14-Oxo-2,9-dioxa-13-aza-tricyclo[13.3.1.1^10,13]eicosane-1(19),15,17-triene-12-carboxamide] the same measures were 66 µmol/L, 69.7 µmol/L and 64.9 µmol/L.
Regarding `O=C(Nc1ccccc1)[C@@H]1C[C@@H]2CN1C(=O)c1cccc(c1)OCCn1cc(nn1)CO2` [Compound 24, (11R,13S)-15-Oxo-N-phenyl-2,10-dioxa-5,6,7,14-tetraaza-tetracyclo[14.3.1.1^5,8.1^11,14]docosane-6,8(21),1(20),16,18-pentaene-13-carboxamide], the IC50 in experiment [1] worked out at 35.6 µmol/L; in experiment [2], 45.7 µmol/L; in experiment [3] (Hep G2 cells), 46.3 µmol/L.
Turning to `O=C(Nc1ccccc1)[C@@H]1C[C@@H]2CN1C(=O)c1cccc(c1)OCCCCO2` [Compound 36, (8R,10S)-12-Oxo-N-phenyl-2,7-dioxa-11-aza-tricyclo[11.3.1.1^8,11]octadecane-1(17),13,15-triene-10-carboxamide], the figures for the IC50 in experiment [1] (Homo sapiens), in experiment [2] (Homo sapiens) and in experiment [3] (setting [4]) were 85.3 µmol/L, 54.3 µmol/L and 95.4 µmol/L, respectively.
As for `CC(C)CNC(=O)[C@@H]1C[C@@H]2CN1C(=O)c1cccc(c1)OCCn1cc(nn1)CO2` [Compound 25, (11R,13S)-15-Oxo-N-isobutyl-2,10-dioxa-5,6,7,14-tetraaza-tetracyclo[14.3.1.1^5,8.1^11,14]docosane-6,8(21),1(20),16,18-pentaene-13-carboxamide], the IC50 came to 42.5 µmol/L in experiment [1], 37.7 µmol/L in experiment [2] and 48.3 µmol/L in experiment [3] (Hep G2 cells).
As to `CC(C)CNC(=O)[C@@H]1C[C@@H]2CN1C(=O)c1cccc(c1)OCCCCO2` [Compound 37, (8R,10S)-12-Oxo-N-isobutyl-2,7-dioxa-11-aza-tricyclo[11.3.1.1^8,11]octadecane-1(17),13,15-triene-10-carboxamide], the IC50 in experiment [1] (Homo sapiens) worked out at 86.3 µmol/L; in experiment [2] (Homo sapiens), 77.9 µmol/L; in experiment [3] (setting [4]) it was 73.1 µmol/L.
